# Assay results published in patent US20220267288A1, “CARDIAC THERAPEUTIC” (priority 2019, published 2022).
# Read-outs that look alike come from different tables or passages of the source. Marks after values point to notes of the source that are not given here.
# Legend:
# CYP3A5 [1] = target: T1, CYP3A5 (Homo sapiens, UniProt P20815); experiment: Metabolic stability (substrate depletion) with CYP3A5; format: in vitro ADME; conditions: for elimination rate constant k by CYP3A5 / half-life at 1 μM: 1 μM substrate, CYP3A5 10 pmol/mL; for CLint (CYP3A5): PBPK parameter, in vitro data obtained; for half-life at 1 μM: human, CYP3A5 enzyme, pH 7.4, read-out: T1/2 by CYP3A5; for Intrinsic clearance, CLint CYP3A5: substrate depletion
# T1 construct: purchased BD Gentest (Woburn, Mass.)
# Description: (§1) The metabolic stability experiments were performed to derive intrinsic clearance (CLint) values via the substrate depletion method. […] NADPH A was subsequently added to initiate the reaction. […] The reaction mixtures were incubated at 37° C. with gentle agitation. At the respective time points (0-60 min), 80 μL of the reaction mixture was quenched using an equal volume of ice-cold ACN with 1 μM tamoxifen as internal standard (IS). The samples were then centrifuged at 3220 g at 4° C. for 30 min before transferring the supernatant to a 96-well plate for liquid chromatography-tandem mass spectrometry (LC-MS/MS) analysis.
# (§2) The mean of triplicate peak area ratios for each compound was normalized to that of the same compound at the 0 min time point to obtain the percentage of substrate remaining at each time point. This was plotted against incubation time for each compound and the data was then fitted to a one-phase decay model using GraphPad Prism software (version 8.02; GraphPad Inc., San Diego, Calif.) to obtain an estimation for the elimination rate constant (k). CLint was then calculated based on equation 3:
# (§3) In equation 3, k=elimination rate constant (min^−1); V=volume of incubation mixture (mL); P=amount of protein in mixture (mg).
# CYP2J2 = target: T2, CYP2J2 (Homo sapiens, UniProt P51589); experiment: Inhibition of CYP2J2-mediated astemizole metabolism in hiPSC-CM; format: cell-based; parameters: endogenous in cells; host or cells: hiPSC-CM (from human foreskin fibroblasts); conditions: 2 μM drug co-incubated with 1 μM astemizole
# T2 sequence (P51589 1-502): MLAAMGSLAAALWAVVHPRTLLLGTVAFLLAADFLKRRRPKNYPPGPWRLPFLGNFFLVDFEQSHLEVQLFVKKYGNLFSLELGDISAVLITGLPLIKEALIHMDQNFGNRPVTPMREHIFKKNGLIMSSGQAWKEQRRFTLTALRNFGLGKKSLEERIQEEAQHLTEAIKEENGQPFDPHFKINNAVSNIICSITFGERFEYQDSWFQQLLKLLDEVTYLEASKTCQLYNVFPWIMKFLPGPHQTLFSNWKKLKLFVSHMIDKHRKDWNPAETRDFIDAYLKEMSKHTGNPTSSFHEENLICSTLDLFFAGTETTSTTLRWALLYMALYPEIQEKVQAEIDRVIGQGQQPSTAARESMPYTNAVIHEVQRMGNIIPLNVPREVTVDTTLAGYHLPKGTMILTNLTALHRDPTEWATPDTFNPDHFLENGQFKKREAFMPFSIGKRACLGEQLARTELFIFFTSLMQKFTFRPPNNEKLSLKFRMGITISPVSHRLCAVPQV
# Description: HiPSC-CM were seeded at a density 100,000 cell/well in a 12-well plate and differentiated for 30 days. […] The cells were then washed with 1×PBS twice and dislodged using Accutase® cell detachment solution. The cells were then pelleted at 2000 g for 10 min at 4° C. The supernatant was discarded and the pellets were resuspended in 100 μL of ice-cold ACN with 0.1 μM buspirone as an internal standard. The cells were sonicated for 15 min on ice to bring about complete cell lysis. The lysate was centrifuged at 10,000×g for 15 min at 4° C. The supernatant was collected and analyzed using LC/MS/MS.
# The LC/MS/MS system consisted of an Agilent 1290 Infinity ultra-high pressure liquid chromatography (UPLC) system (Agilent Technologies Inc., Santa Clara, Calif.) interfaced with the AB SCIEX QTRAP® 5500 tandem mass spectrometry (MS/MS) system (AB SCIEX, Framingham, Mass.). The LC/MS/MS system was controlled by Analyst 1.4.2 software (Applied Biosystems) which performed all chromatographic peak integration. The ACQUITY UPLC BEH C18 column, 1.7 μM, 2.1×50 mm (Waters, Milford, Mass.), was used to achieve chromatographic separation. The temperatures of the column and samples were maintained at 45° C. and 4° C. respectively. The mobile phases were 0.2% acetic acid in 5 mM ammonium acetate (solvent A) and 0.2% acetic acid in ACN (solvent B). They were delivered at a flow rate of 0.6 mL/min. […]
# CYP3A4 [2] = target: T3, CYP3A4 (Homo sapiens, UniProt P08684); experiment: Time- and concentration-dependent inactivation of CYP3A4, rivaroxaban probe; format: in vitro ADME; conditions: for KI (inactivation): human, recombinant CYP3A4, pH 7.4, probe rivaroxaban (50 μM), in vitro data obtained, rivaroxaban probe, read-out: Mechanism-based inactivation KI CYP3A4
# T3 construct: purchased BD Gentest (Woburn, Mass.)
# Description: (§4) Incubations were conducted in triplicates in 96-well plates. Primary incubation mixtures comprising various concentrations of inhibitor (0-20 μM) were pre-incubated at 37° C. for 3 min with CYP3A4 or CYP3A5 (20 pmol/mL) and NADPH B in potassium phosphate buffer (100 mM, pH 7.4). To initiate the enzymatic reaction, 5 μL NADPH A was added to the primary incubation. The final primary incubation mixture volume was 100 μL and contained <1% v/v organic solvent. At different pre-incubation time points (3, 8, 15, 22, 30, and 45 min) after the addition of NADPH A, 5 μL aliquots of the primary incubation were transferred to 95 μL of the secondary incubation containing 50 μM rivaroxaban, the NADPH A and B, and potassium phosphate buffer (100 mM, pH 7.4) to yield a 20-fold dilution. The secondary incubation mixtures were incubated at 37° C. for 2 h with CYP3A4 or CYP3A5 before 80 μL aliquots were removed and quenched with an equal volume of ice-cold ACN containing 4 μM dexamethasone as IS. The samples were then centrifuged at 3220 g at 4° C. for 30 min before transferring the supernatant to a 96-well plate for liquid chromatography-tandem mass spectrometry (LC-MS/MS) analysis. The main rivaroxaban metabolite, morpholinone hydroxylated metabolite, was quantified using LC-MS/MS analysis.
# The mean of triplicate peak area ratios for each inhibitor concentration and pre-incubation time was normalized to that of 0 μM inhibitor with the same pre-incubation time. The amount of rivaroxaban metabolite formed during the secondary incubation, a measure of the probe substrate activity remaining, was computed and the natural logarithm of this measure was plotted against inactivation pre-incubation time for each inactivator concentration. For each concentration, the data was then fitted to a linear regression model, through which kobs (apparent inactivation rate constant) was obtained as the negative gradient of the linear regression. […]
# CYP3A5 [3] = target: T1, CYP3A5; experiment: Time- and concentration-dependent inactivation of CYP3A5, rivaroxaban probe; format: in vitro ADME; conditions: recombinant CYP3A5, pH 7.4, probe rivaroxaban (50 μM), in vitro data obtained, read-out: Mechanism-based inactivation KI CYP3A5
# Description: as §4, with “LC-MS/MS analysis. […]” for “LC-MS/MS analysis.”
# CYP3A4 [4] = target: T3, CYP3A4; experiment: Metabolic stability (substrate depletion) with CYP3A4; format: in vitro ADME; conditions: for elimination rate constant k by CYP3A4 / half-life at 1 μM: 1 μM substrate, CYP3A4 10 pmol/mL; for CLint (CYP3A4): PBPK parameter, in vitro data obtained; for half-life at 1 μM: human, CYP3A4 enzyme, pH 7.4, read-out: T1/2 by CYP3A4; for Intrinsic clearance, CLint CYP3A4: substrate depletion
# Description: as §1, §2, §3
# [5] = cited from earlier work
# hiPSC-CM = experiment: Extracellular field potential duration (FPD), multi electrode array; format: cell-based, human; conditions: MEA, 0-10 μM
# Description: Electrophysiological perturbations of hiPSC-CM were measured using multi electrode array (MEA) recording system (Multichannel Systems, Reutlingen, Germany). […] FPD measurements were normalized (corrected FPD [cFPD]) to the beating rate of the contracting areas with the Bazzet correction formula: cFPD=FPD/√(RR interval) as described previously^3. One-phase decay algorithm was used to plot corrected FPD curves.
# T1 sequence (P20815 whole entry): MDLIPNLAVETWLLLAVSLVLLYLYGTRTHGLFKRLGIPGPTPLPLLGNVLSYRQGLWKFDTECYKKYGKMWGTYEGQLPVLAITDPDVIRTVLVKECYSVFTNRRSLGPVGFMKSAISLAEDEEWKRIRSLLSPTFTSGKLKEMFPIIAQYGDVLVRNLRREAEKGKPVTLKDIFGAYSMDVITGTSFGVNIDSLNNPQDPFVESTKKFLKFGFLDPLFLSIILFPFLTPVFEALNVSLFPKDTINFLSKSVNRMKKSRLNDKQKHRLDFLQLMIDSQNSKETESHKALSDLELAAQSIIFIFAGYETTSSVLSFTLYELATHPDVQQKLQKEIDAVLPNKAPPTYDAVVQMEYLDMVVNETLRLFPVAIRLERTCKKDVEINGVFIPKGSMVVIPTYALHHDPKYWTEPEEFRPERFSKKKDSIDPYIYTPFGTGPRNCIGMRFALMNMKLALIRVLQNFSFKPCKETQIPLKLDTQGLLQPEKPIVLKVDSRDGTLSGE
# T3 sequence (P08684 whole entry): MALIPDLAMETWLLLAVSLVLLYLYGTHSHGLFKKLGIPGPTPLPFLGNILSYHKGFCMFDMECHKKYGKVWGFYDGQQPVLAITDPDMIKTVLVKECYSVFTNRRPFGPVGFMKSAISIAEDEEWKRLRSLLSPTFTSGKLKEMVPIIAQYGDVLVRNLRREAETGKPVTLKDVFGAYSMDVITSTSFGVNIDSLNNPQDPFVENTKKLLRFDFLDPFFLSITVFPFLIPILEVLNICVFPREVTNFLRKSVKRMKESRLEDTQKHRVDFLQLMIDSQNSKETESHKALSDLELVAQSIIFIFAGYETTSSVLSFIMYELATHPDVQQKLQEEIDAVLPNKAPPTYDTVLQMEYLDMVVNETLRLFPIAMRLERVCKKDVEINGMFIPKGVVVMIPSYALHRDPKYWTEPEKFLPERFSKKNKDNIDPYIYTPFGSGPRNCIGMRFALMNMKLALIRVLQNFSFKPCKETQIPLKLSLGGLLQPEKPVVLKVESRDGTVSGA
Compound,elimination rate constant k by CYP3A5 (CYP3A5 [1]) [min⁻¹],CLint (CYP3A5) (CYP3A5 [1]),half-life at 1 μM (CYP3A5 [1]) [min],"Intrinsic clearance, CLint CYP3A5 (CYP3A5 [1]) [µL/min/pmol]",KI (inactivation) (CYP3A4 [2]) [µM],KI (inactivation) (CYP3A5 [3]) [µM],elimination rate constant k by CYP3A4 (CYP3A4 [4]) [min⁻¹],CLint (CYP3A4) (CYP3A4 [4]),half-life at 1 μM (CYP3A4 [4]) [min],"Intrinsic clearance, CLint CYP3A4 (CYP3A4 [4]) [µL/min/pmol]",Kp of tissues: Adipose ([5]; PBPK parameter),Kp of tissues: Heart ([5]; PBPK parameter),Kp of tissues: Kidney ([5]; PBPK parameter),log P ([5]; PBPK parameter),effect on extracellular field potential duration (FPD) (hiPSC-CM),also measured
CCCCc1oc2ccc(NS(C)(=O)=O)cc2c1C(=O)c1ccc(OCCCN(CCCC)CCCC)cc1.Cl [Dronedarone],0.03989,14.1812* μL/min/mg microsomal protein,17.4,3.99,5.3,5.37,0.04144,114.739* μL/min/mg microsomal protein,16.7,8.29,1,1,1,6.46,Dose-dependent increase in the FPD,"Intrinsic clearance, CLint CYP3A5 (CYP3A5 [1]; listed as dronedarone): 3.989 µL/min/pmol; inhibition of CYP2J2 in hiPSC-CM (CYP2J2; 24 h): 98%; MBI potency against CYP3A4 (CYP3A4 [2]; rivaroxaban probe substrate): 0.00505 AV min^−1; Intrinsic clearance, CLint CYP3A4 (CYP3A4 [4]; listed as dronedarone): 8.288 µL/min/pmol; Caco-2 permeability ([5]; PBPK parameter): 0.595 ×10⁻⁶ cm/s; Kp of tissues: Liver ([5]; PBPK parameter): 38.05; Kp of tissues: Lung ([5]; PBPK parameter): 64.01; fu ([5]; PBPK parameter): 0.003; pKa ([5]; PBPK parameter, monoprotic base): 9.4; Solubility-pH profile ([5]; pH 3): 1.6 mg/mL; Solubility-pH profile ([5]; pH 4): 1.6 mg/mL; Solubility-pH profile ([5]; pH 5): 1.5 mg/mL; Solubility-pH profile ([5]; pH 6): 0.1 mg/mL; Solubility-pH profile ([5]; pH 7): 0.01 mg/mL"
"Cl.[2H]c1c(NS(C)(=O)=O)c([2H])c2c(C(=O)c3ccc(OCCCN(CCCC)CCCC)cc3)c(CCCC)oc2c1[2H] [Poyendarone, Methanesulfonamide, N-(2-butyl-3-(4-(3-(dibutylamino)propoxy)benzoyl)-1-benzo(4,6,7-d3)-furan-5-yl)hydrochloride]",0.02757,14.2384* μL/min/mg microsomal protein,25.1,2.76,3.19,2.91,0.0918,115.2016* μL/min/mg microsomal protein,7.55,9.18,1,1,1,6.442,Dose-dependent increase in the FPD,"Intrinsic clearance, CLint CYP3A5 (CYP3A5 [1]; listed as poyendarone): 2.757 µL/min/pmol; inhibition at 24 h, 2 μM (CYP2J2; human, hiPSC-derived cardiomyocytes (hiPSC-CM), probe astemizole (1 μM)): 50%; Caco-2 permeability ([5]; PBPK parameter, assumed): 0.595 ×10⁻⁶ cm/s; Kp of tissues: Liver ([5]; PBPK parameter, assumed): 38.05; Kp of tissues: Lung ([5]; PBPK parameter, assumed): 64.01; pKa ([5]; PBPK parameter, assumed): 9.4; Additional HLM clearance ([5]; assumed): 55 μL/min/mg microsomal protein; Intrinsic solubility ([5]; assumed): 2.01 × 10^−3 (assumed) mg/mL"
